Where two headings read alike, the source gives them in different places. No end group written: not given here.
Columns and labels:
Rap^105 = assay: Thermal shift assay of Rap^105 with synthetic peptides; format: binding, phage phi105; settings: 100 μm peptide, without supernatant incubation
Description: (§1) The thermal shift assay was conducted in a CFX Opus Real-Time PCR system (Biorad). Samples of 20 μl containing 20× Sypro Orange (Sigma-Aldrich) and 50 μm of protein in a 20 mM Tris (pH 8) and 250 mM NaCl buffer or filtered supernatant in peptide maturation assays (see below) were loaded in 96-well PCR plates. In the cases where peptide interaction was analyzed, synthetic peptides at a final concentration of 100 μm were added to the assays. Samples were heated from 20 to 85°C in steps of 1 degree. Fluorescent intensity was plotted versus temperature and integrated with either CFX Opus Real-Time PCR automate model or GraphPad Prism software using a Boltzmann model to calculate melting temperatures.

[1] = tested on: extracellular proteases in supernatants of B. subtilis 168, WB800 and individual protease mutants; assay: Peptide maturation assay with B. subtilis supernatants, read by Rap^105 thermal shift; format: biochemical, Bacillus subtilis; settings: 100 μm peptide, 1 h room temperature; 8 single protease mutants
Description: Overnight cultures of either B. subtilis strains 168, WB800, Δmpr, Δbpr, ΔaprE, Δepr, ΔwprA, Δvpr, ΔnprB, ΔnprE in GM1 media were diluted 1:20 into GM1 media and incubated at 37°C at 250 rpm. After 2 h, the OD600 were measured and adjusted to 0.5 with GM1 media, and 1 ml of bacterial cultures were centrifuged at 8,000 g for 2 min at room temperature and the supernatants were filtered using 0,2 μm nitrocellulose filters; 1 μl of 10 mM synthetic version of the mature pheromones (RRGHTA, RRGHTAS, SRGHTS, RGHTS, ERPVGT, Imat1^3T, Imat2^3T, Imat1^105, Imat2^105, and Imat3^105) were added to 99 μl of supernatant obtaining a final concentration of 100 μm and incubated for 1 h at room temperature. After incubation, reaction was stopped by incubation at 95°C for 5 min and sample was kept and used in Thermal Shift Assays (see before). In the kinetic assays, samples were inactivated at different times by incubation at 95°C for 5 min. Experiments were validated by experimental triplicates of 3 biological replicates.
as §1

[2] = tested on: Rap^3T (PsrfA-3xYFP competence reporter); assay: Competence reporter assay (PsrfA-3xYFP) in strain overexpressing Rap^3T; format: cell-based, Bacillus subtilis; settings: strain 9834 hsRap(phi3T) Psrf-YFP, 1mM IPTG, 4hrs in MC, peptides added after 1 hr; for YFP, Mean: mean of 3 repeats
Text: (§2) Bacillus strains AES9822 (SacA::PsrfA-3xYFP Cm), AES9824 (SacA::PspoIIG-3xYFP Cm), AES9834 (sacA::Psrf-3xYFP cm amyE::hsRap^3T spec), and AES9836 ([…] cm amyE::hsRap^3T spec) were constructed by natural transformation of the pAEC1003, pAEC1103, and pAEC2836 (see next section) plasmids into a PY79;xpf background Bacillus subtilis strain.
For competence experiments, the expression levels of the srf promoter reporter were determinate in a liquid culture generated from a single colony that was inoculated into MC competence media. The strains were grown at 37° with shaking at 220 RPM, with or without addition of 1 mM IPTG. […]

[3] = tested on: Rap^3T (PspoIIG-3xYFP sporulation reporter); assay: Sporulation assay (PspoIIG-3xYFP reporter) in strain overexpressing Rap^3T; format: cell-based, Bacillus subtilis; settings: strain 9836 hsRap(phi3T) PspoIIG-YFP, 1mM IPTG, 6 hrs in DSM, peptides added after 4.5hrs; for Mean %ON: mean of 3 repeats
Text: as §2
For sporulation experiments, the expression levels of spoIIG promoter reporter were determinate in a liquid culture from an overnight starter in LB were diluted 1:100 into Schaeffer’s sporulation medium (DSM). The strains were grown at 37° with shaking at 220 RPM, with or without addition of 1 mM IPTG. After 4.5 h of growth, peptides were added at a concentration of 10 μm. Following an additional 1.5 h of growth, YFP fluorescence was measured using a Beckman Coulter cytoflex flow cytometer.

Rap^3T = assay: Microscale thermophoresis (MST) of peptide binding to Rap^3T; parameters: species or system Bacillus phage phi3T
Description: Rap^3T was fluorescently labeled with NT-647 amine reactive dye from the Monolith NT Protein Labeling kit RED-NHS (NanoTemper Technologies) according to the manufacturer’s instructions. Briefly, 100 μm solution of the protein was mixed with 3× dye solution, incubated 30 min in dark, and then purified by gravity in a 5 ml size exclusion column equilibrated with dialysis buffer (20 mM Tris-HCl (pH 8), 250 mM NaCl) supplemented with 0.1% pluronic and 5% glycerol to remove free dye. Rap^105 was fluorescently labeled using His-Tag Labeling Kit RED-tris-NTA 2nd Generation. Briefly, 500 nM of protein was mixed with 5 μm dye in PBS supplemented with 0,02% of tween incubated in dark at room temperature for 30 min and centrifuged at 10,000 g for 10 min at 4°C, transferred to a fresh tube, and used in the assays immediately. Labeled proteins were used at a final optimized concentration of 20 nM in the case of Rap^3T and 250 nM in the case of Rap^105. For the measurements of EC50, a 16-point 2-fold serial dilution (ranged from 2 to 3 × 10^−5 μm) of the peptides were prepared in presence of the corresponding labeled Rap protein. After 15-min incubation at room temperature, samples were filled into standard Capillaries (K005, NanoTemper Technologies) and MST measurements were performed on a Monolith NT.115 (NanoTemper Technologies) in RED channel using 60% to 75% of LED excitation power and medium or high MST power for Rap^3T or Rap^105, respectively. […] Data analyses were performed with M.O. Affinity Analysis software (NanoTermper Technologies) applying cooperative (Hill coefficient) and non-cooperative (Kd model) models, with the first one yielding better fitting values.

[4] = tested on: extracellular proteases in supernatants of B. subtilis 168, WB800 and individual protease mutants; assay: Peptide maturation assay with B. subtilis supernatants, read by Rap^3T thermal shift; format: biochemical, Bacillus subtilis; settings: 100 μm peptide
Description: Overnight cultures of either B. subtilis strains 168, WB800, Δmpr, Δbpr, ΔaprE, Δepr, ΔwprA, Δvpr, ΔnprB, ΔnprE in GM1 media were diluted 1:20 into GM1 media and incubated at 37°C at 250 rpm. […] After incubation, reaction was stopped by incubation at 95°C for 5 min and sample was kept and used in Thermal Shift Assays (see before). In the kinetic assays, samples were inactivated at different times by incubation at 95°C for 5 min. Experiments were validated by experimental triplicates of 3 biological replicates.
as §1

[5] = tested on: WprA and Bpr proteases (B. subtilis supernatants); assay: Kinetic (time course) maturation assay of Imat1^3T in 168, WprA and Bpr KO supernatants; format: biochemical, Bacillus subtilis; settings: samples inactivated at different times, Rap^3T thermal shift
Text: Fig 2 Propeptide maturation of Phr^3T and Phr^105 propeptides. Thermal shift assay experiments for maturation effect of supernatants from B. subtilis 168 and WB800 strains in immature version of the pheromones codified in Phr^3T (a) and Phr^105 (e), mean values of triplicates are plotted, 3 standard deviations from negative control maturation (WB800 supernatant) are highlighted in red. Error bars mark from the minimum to maximum values observed in the triplicates. Thermal shift assays with supernatants from B. subtilis 168, WB800, and individual protease mutant strains in maturation of peptides Imat2^3T(b), Imat1^105 (f), Imat2^105 (g) and Imat3^105 (h), mean values of triplicates are plotted, 3 standard deviations from negative control maturation (WB800 supernatant) are highlighted in red. Error bars mark from the minimum to maximum values observed in the triplicates. (c) Thermal shift slopes of the effect of individual mutations of 8 protease genes on Imat1^3T peptide maturation. (d) Kinetic assays comparing Imat1^3T peptide maturation in 168 supernatant and supernatants of WprA and Bpr protease KO mutants, relative maturation was calculated as fluorescence of the peak corresponding with the mature pheromone divided by the fluorescence of the peak corresponding with the non-maturated pheromone. […]

[6] = molecular target: Rap^3T (Bacillus phage phi3T); assay: thermal shift assay; Sypro Orange, 50 μm protein, 100 μm synthetic peptide, 20 mM Tris (pH 8), 250 mM NaCl (or filtered supernatant in the maturation assays), heated from 20 to 85°C
[7] = molecular target: Rap^3T (Bacillus phage phi3T); assay: MST; Rap^3T labelled with NT-647 (RED-NHS) at 20 nM; peptides in a 16-point 2-fold dilution from 2 to 3 x 10^-5 μm; 20 mM Tris-HCl (pH 8), 250 mM NaCl, 0.1% pluronic, 5% glycerol; 15 min at room temperature; Hill model

Molecule: SSDVKITERPVGT [Imat0^105, immature synthetic peptide […]]
- stabilization of Rap^105 in thermal shift assay (Rap^105): destabilization
- maturation by supernatants of individual protease mutants of B. subtilis 168 (Rap^105 thermal shift) [1]: reduced or null maturation activity in ΔnprE, Δbpr, and ΔwprA mutants

Molecule: SIGFTDGHSYDIASRGHTS
- YFP, Mean [2]: 8018.67
- YFP, repeat I [2]: 5205
- YFP, repeat II [2]: 10226
- YFP, repeat III [2]: 8625
- Mean %ON [3]: 37.1%
- %ON (YFP), repeat I [3]: 51.1%
- YFP, repeat I [3]: 4889
- % ON (YFP), repeat II [3]: 30.7%
- YFP, repeat II [3]: 2305
- % ON (YFP), repeat III [3]: 29.5%
- YFP, repeat III [3]: 2121

Molecule: SIGFTDGHSYDIASRGHTS [Long2]
- EC50 (Rap^3T; MO.Affinity export, one merged set, target 2e-8, On Time evaluation, hot region 4-5, excitation power 10, confidence limits 0 and #NUM! (no real fit), read-out: EC50 (Hill fit), merged set): 19800 nM

Molecule: RRGHTASIGFTDGHSYDIA [Imat1^3T]
- binding to Rap^3T (MST), in words (Rap^3T; MST): weak affinity
- maturation by B. subtilis 168 supernatant (Rap^3T thermal shift) ([4]; 1 h room temperature in filtered supernatant (GM1, OD600 0.5), stopped 95°C 5 min): effectively processed
- maturation by supernatants of individual protease mutants of B. subtilis 168 (Rap^3T thermal shift) ([4]; 1 h room temperature, 8 single protease mutants): the supernatants from the ΔwprA and Δbpr mutants showed 2 slopes
- maturation by B. subtilis WB800 (protease-deficient) supernatant (Rap^3T thermal shift) ([4]; 1 h room temperature, strain mutant in nprE, nprB, aprE, epr, bpr, mpr, vpr, wrpA): no increase in Rap^3T stabilization was observed
- time course maturation with Δbpr supernatant [5]: fully mature the peptide at longer incubation times
- time course maturation with ΔwprA supernatant [5]: minimal maturation levels even at these times

Molecule: ERPVGTLKLA [Imat1^105, immature synthetic peptide […]]
- stabilization of Rap^105 in thermal shift assay (Rap^105): minimal stabilization
- maturation by supernatants of individual protease mutants of B. subtilis 168 (Rap^105 thermal shift) [1]: only for ΔwprA mutants

Molecule: RRGHTASIGFTDGHSYDIA
- YFP, Mean [2]: 8810.67
- YFP, repeat I [2]: 5838
- YFP, repeat II [2]: 10641
- YFP, repeat III [2]: 9953
- Mean %ON [3]: 42.9%
- %ON (YFP), repeat I [3]: 59.6%
- YFP, repeat I [3]: 5294
- % ON (YFP), repeat II [3]: 39.8%
- YFP, repeat II [3]: 2641
- % ON (YFP), repeat III [3]: 29.3%
- YFP, repeat III [3]: 2055

Molecule: RRGHTASIGFTDGHSYDIA [Long1]
- EC50 (Rap^3T; MST, Hill model, target 2e-8, MST-Power Medium, Nano - RED, 25.0°C, replicate 1 (first merge-set, c1), read-out: EC50 (Hill fit)): 133 nM
- EC50 (Rap^3T; MST, Hill model, target 2e-8, MST-Power Medium, Nano - RED, 25.0°C, replicate 2 (second merge-set, c4), read-out: EC50 (Hill fit)): 134 nM
- EC50 (Rap^3T; MST, Hill model, target 2e-8, MST-Power Medium, Nano - RED, 25.0°C, replicate 3 (third merge-set, c7), read-out: EC50 (Hill fit)): 186 nM

Molecule: LKLAERPVGT [Imat2^105, immature synthetic peptide […]]
- stabilization of Rap^105 in thermal shift assay (Rap^105): destabilization
- maturation by supernatants of individual protease mutants of B. subtilis 168 (Rap^105 thermal shift) [1]: maturated for all the supernatants

Molecule: RRGHTAS
- stabilization of the denaturation temperature [6]: > 20 °C
- EC50 [7]: 6.7 nM

Molecule: SRGHTS
- stabilization of the denaturation temperature [6]: > 20 °C
- EC50 [7]: 20.8 nM

Molecule: RGHTS
- stabilization of the denaturation temperature [6]: > 20 °C
- EC50 [7]: 69.8 nM

Molecule: RRGHTA
- dTm [6]: 75 °C
- stabilization of the denaturation temperature [6]: > 20 °C
- EC50 [7]: 5.28 nM

Source: PMC11343458, “Extracellular proteolysis of tandemly duplicated pheromone propeptides affords additional complexity to bacterial quorum sensing” (PLOS Biology, 2024)
